Experimental data taken from patent US20130071854A1, “METHODS FOR THE IDENTIFICATION AND CHARACTERIZATION OF HDAC INTERACTING COMPOUNDS” (priority 2009, published 2013).
Like-named read-outs stand apart in the source and are kept apart here. Values belong to the molecule of their own block, whether it stands above or below them.

Experiments:
[1] = system: Sin3 complex; test: Chemoproteomic binding profiling, K562 cell extract, SAHA/ITF2357 probe matrix (Kd app); set-up: species or system human
[2] = system: T1, MiDAC complex (HDAC1/2, DNTTIP1, CDYL, MIDEAS); test: as above; set-up: species or system human
T1 construct: Kd^app MIDEAS; other: protein MIDEAS; MiDAC complex; Kd^app DNTTIP1; other: protein DNTTIP1

[3] = target: T2, ISOC2 (Homo sapiens, UniProt Q96AB3); test: Competition binding assay in cell lysate, affinity matrix, MS
T2 construct: endogenous in cells

[4] = system: RBBP4; conditions: K-562 cell lysate
[5] = target: T3, WDR5 (Homo sapiens, UniProt P61964); test: Competition binding assay in cell lysate, affinity matrix, MS
T3 construct: endogenous in cells

[6] = target: TRERF1; type: binding, human; conditions: protein TRERF1; ELSA (ELM-SANT) domain proteins; read-out: Kd^app TRERF1
[7] = target: T4, APOBEC3C (Homo sapiens, UniProt Q9NRW3); test: Competition binding assay in cell lysate, affinity matrix, MS
T4 construct: endogenous in cells

[8] = target: T5, NOSIP (Homo sapiens, UniProt Q9Y314); test: as above
T5 construct: endogenous in cells

[9] = system: MBD3; test: Competition binding assay in cell lysate, affinity matrix, MS (Mi-2/NuRD interactor); conditions: K-562 cell lysate
[10] = system: SAP30; test: Competition binding assay in cell lysate, affinity matrix, MS (Sin3 interactor); set-up: species or system human; conditions: K-562 cell lysate
[11] = system: GATAD2A; test: Competition binding assay in cell lysate, affinity matrix, MS (Mi-2/NuRD interactor); conditions: K-562 cell lysate
[12] = system: SIN3A; conditions: K-562 cell lysate
[13] = target: Sin3 complex (Homo sapiens, UniProt Q13547+Q92769); test: Chemoproteomic binding profiling, K562 cell extract, SAHA/ITF2357 probe matrix (Kd app)
[14] = target: MiDAC complex (HDAC1/2, DNTTIP1, CDYL, MIDEAS) (Homo sapiens, UniProt Q13547+Q92769); test: as above; set-up: Kd^app MIDEAS; other: protein MIDEAS; MiDAC complex; Kd^app DNTTIP1; other: protein DNTTIP1
[15] = system: IFNα secretion; test: IFNα secretion assay in peripheral blood mononuclear cells stimulated with ODN2216; conditions: Homo sapiens, PBMC, read-out: EC50 inhibition of secretion of IFNα
[16] = protein SAP30, read-out: Kd^app SAP30
[17] = protein SIN3A, read-out: Kd^app SIN3A
[18] = protein SIN3B, read-out: Kd^app SIN3B
[19] = protein DNTTIP1, read-out: Kd^app DNTTIP1
[20] = protein MIDEAS, read-out: Kd^app MIDEAS

T4 sequence (Q9NRW3 whole entry): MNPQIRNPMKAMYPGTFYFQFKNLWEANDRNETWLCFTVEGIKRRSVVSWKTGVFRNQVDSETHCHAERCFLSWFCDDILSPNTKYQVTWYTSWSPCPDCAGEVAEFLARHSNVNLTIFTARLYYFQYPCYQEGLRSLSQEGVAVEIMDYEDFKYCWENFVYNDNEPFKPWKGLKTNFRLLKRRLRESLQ
T5 sequence (Q9Y314 whole entry): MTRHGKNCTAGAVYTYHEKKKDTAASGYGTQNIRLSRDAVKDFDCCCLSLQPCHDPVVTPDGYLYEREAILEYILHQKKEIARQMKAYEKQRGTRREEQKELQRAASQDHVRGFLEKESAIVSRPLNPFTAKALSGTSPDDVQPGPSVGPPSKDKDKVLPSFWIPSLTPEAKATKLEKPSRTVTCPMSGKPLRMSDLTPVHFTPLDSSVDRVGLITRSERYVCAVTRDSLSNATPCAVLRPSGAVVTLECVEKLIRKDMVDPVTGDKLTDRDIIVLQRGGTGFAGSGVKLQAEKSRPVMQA
T2 sequence (Q96AB3 whole entry): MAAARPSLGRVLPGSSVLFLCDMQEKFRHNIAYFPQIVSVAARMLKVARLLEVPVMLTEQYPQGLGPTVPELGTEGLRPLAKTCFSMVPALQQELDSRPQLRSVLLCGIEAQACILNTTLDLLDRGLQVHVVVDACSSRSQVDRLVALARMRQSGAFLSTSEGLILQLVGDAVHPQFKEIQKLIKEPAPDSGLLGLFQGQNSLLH

Structure (SMILES): Nc1ccccc1NC(=O)CCCCCCC(=O)Nc1ccccc1 [BML-210]
Kd [1, 16]: > 85 µM
Kd [1, 17]: > 85 µM
Kd [1, 18]: > 85 µM
Kd [2, 19]: > 85 µM
Kd [2, 20]: > 85 µM

Structure (SMILES): Nc1ccccc1NC(=O)c1ccc(CNC(=O)OCc2cccnc2)cc1 [MS-275]
IC50 [3]: ≥ 300 µM
IC50 [4]: 300 µM
IC50 [5]: ≥ 300 µM
Kd [6]: > 300 µM
IC50 [7]: ≥ 300 µM
IC50 [8]: ≥ 300 µM
IC50 [9]: 300 µM
IC50 [10]: 300 µM
IC50 [11]: 300 µM

Structure (SMILES): O=C(CCCCCCC(=O)Nc1ccccc1)NO [SAHA, suberoylanilide hydroxamic acid]
IC50 [12]: 0.57 µM
IC50 [9]: 0.61 µM

Kd [13, 16]: 125 µM
Kd [13, 17]: 185 µM
Kd [13, 18]: > 59.7 µM
Kd [14, 19]: 418 µM
Kd [14, 20]: 476 µM
EC50 [15]: 8.9 µM
Structure (SMILES): CCCCOc1ccc(CC(=O)NO)cc1 [bufexamac]
